PMC11397024, “Strategic Fluorination to Achieve a Potent, Selective, Metabolically Stable, and Orally Bioavailable Inhibitor of CSNK2” (Molecules, 2024)
Entries after “also recorded” stand apart in the source; their conditions may differ.

Experiments:
CSNK2 = experiment: In vitro inhibition of phosphorylation of EIF2S2; format: cell-based, Human; settings: A549-ACE2 cells, 1 μM and 5 μM, 24 h, Western blot
192 human kinases = experiment: NanoBRET K192 panel, whole panel; format: cell-based; settings: six off-target kinases, dose-response experiments
Experimental: The K192 selectivity assay was run according to the Draft Promega technical manual, NanoBRET^TM Target Engagement K192 Kinase Selectivity System. Reagents were supplied by Promega (Promega NP 4101). For the assay, DNA from the prepared kinase vector panel plates A and B were mixed with Fugene in 96-well plates (Corning 3917) and incubated at room temperature for 30 min. The NanoLuc® Low control vector pNL1.1.CMV [Nluc/CMV] Vector (Cat.# N1091) and the transfection control vector NanoLuc®-HIPK2 Fusion Vector (Cat.# NV3221) were used as controls.
HEK293 cells were grown to 75–95% confluency in DMEM (Gibco 11995-065) supplemented with FBS (Avantor 97068-085) at 37 °C in 5% RH. […]
On day two of the assay, 5 μL of 20X K10 tracer was prepared and added at concentrations recommended by Promega. […] After 2–3 min, the plate was shaken at 300 RPM for 10 s, and the donor emission wavelength (450 nm) and acceptor emission wavelength (610 nm) were measured using the Glomax® Discover System.
As a quality check, the donor signal-to-background ratio was calculated for each individual kinase by dividing the mean donor signal for each kinase by the mean donor signal for the signal-to-background control wells. Fractional occupancy of the test drug for each kinase was determined using the following formula:Occupancy (%) = [1 − (Sample − Bottom)/(Top − Bottom)] × 100 where

CCC(=O)Nc1cc(Nc2cc(NC3CC3)n3ncc(C#N)c3n2)c(F)cc1N1CCC[C@H](NC)C1 [Compound 2, (S)-N-(5-((3-cyano-7-(cyclopropylamino)pyrazolo[1,5-a]pyrimidin-5-yl)amino)-4-fluoro-2-(3-(methylamino)piperidin-1-yl)phenyl)propionamide]
phosphorylation levels of the CSNK2 substrate EIF2S2 (CSNK2): inhibited; also recorded: dose-dependent reduction
selectivity compared to CSNK2A1 and CSNK2A2 (192 human kinases): ≥ 1000 fold
